From US20030153618A1, “Treatment and prevention of herpes simplex infections” (priority 1999, published 2003)

Experiments:
HSV, Type II = assay: Direct plaque-forming unit (PFU) count in BSC cells in defined media with set lysine (or derivative):arginine ratio; assay type: cell-based; settings: average of three tests
Procedure: Absorbed virons were absorbed in susceptible cells in chemically defined media and the number of plaques made were counted. (See Davis, B. D., et al., Microbiology, 2nd Ed., Harper & Row, 1973, Part V, and sources cited therein for procedural details and discussion of the plaque method.)
The cell line chosen was green monkey kidney cells (BSC) that have been passed greater than 41 times. […] The virons were added to a confluent lawn of BSC cells and allowed to absorb at 25° C. for one hour. The unabsorbed virons and the media were removed by washing three times in PBS. […] The control media contained a lysine/arginine ratio of 1:1. The plaques were counted when easily readable. Flasks are done in triplicate.

Herpes simplex II virus = assay: Back titration plaque assay: PFU counts at stated amounts of compound under test and arginine; assay type: cell-based, Herpes simplex II virus (BSC cells)
Procedure: The following experiments were conducted by back titration: Herpes simplex II virus from laboratory stocks was used. BSC cells were grown to confluence in Eagles medium with 15% fetal calf serum, 150 units per milliliter of penicillin and 100 micrograms per milliliter of streptomycin. The cultures were inoculated with 500 PFU of HS II. The virons were allowed to absorb for one hour at 25° C. The tissue cultures were then washed three times with sterile PBS to remove excess media and non-absorbed virons. The cells were then incubated at 37° C. until four-plus cytopathic effects were observed. The cells were then disrupted by slow freeze-thaw two times. The suspension was then clarified by slow speed centrifugation at 4° C. The supemanant suspension was then added to confluent BSC cultures. After one hour absorption, the cells were washed with PBS twice. The cells were overlaid in defined reagent (in triplicate) Eagles media in noble agar. The cells were then incubated at 37° C. until the plaques were easily counted, usually 40 t 72 hours. the cells were then washed two times with PBS and then fixed with 10% H2CO and a 2% sodium acetate. The cells were then stained in 0.1% crystal violet in ethanol. In the tables which follow the concentration of the compound to be tested, in micrograms per milliliter, is listed across the top of the table and the concentration of arginine in micrograms per milliliter is listed down the left side of the table, the count of plaque-forming units being shown in the matrix.

[1] = Compound Ratio to Arginine 10:1
[2] = Compound Ratio to Arginine 100:1

SMILES: CC(N)CCCCC(N)C(=O)O (centres unmarked) [drawing 15]
- P.F.U. Count (HSV, Type II; [1]): <5
- P.F.U. Count (HSV, Type II; [2]): <5

SMILES: CC(N)CCCCC(N)C(=O)O (centres unmarked) [drawing 18]
- P.F.U. Count (Herpes simplex II virus; compound 10 μg/ml, arginine 0 μg/ml): 0
- P.F.U. Count (Herpes simplex II virus; compound 10 μg/ml, arginine 2.5 μg/ml): 0
- P.F.U. Count (Herpes simplex II virus; compound 10 μg/ml, arginine 5.0 μg/ml): 0
- P.F.U. Count (Herpes simplex II virus; compound 10 μg/ml, arginine 7.5 μg/ml): 0
- P.F.U. Count (Herpes simplex II virus; compound 10 μg/ml, arginine 10 μg/ml): 610
- P.F.U. Count (Herpes simplex II virus; compound 10 μg/ml, arginine 15 μg/ml): 46
- P.F.U. Count (Herpes simplex II virus; compound 10 μg/ml, arginine 20 μg/ml): 2.1 × 10^5
- P.F.U. Count (Herpes simplex II virus; compound 10 μg/ml, arginine 25 μg/ml): 2.8 × 10^5
- P.F.U. Count (Herpes simplex II virus; compound 25 μg/ml, arginine 0 μg/ml): 0
- P.F.U. Count (Herpes simplex II virus; compound 25 μg/ml, arginine 2.5 μg/ml): 0
- P.F.U. Count (Herpes simplex II virus; compound 25 μg/ml, arginine 5.0 μg/ml): 0
- P.F.U. Count (Herpes simplex II virus; compound 25 μg/ml, arginine 7.5 μg/ml): 0
- P.F.U. Count (Herpes simplex II virus; compound 25 μg/ml, arginine 10 μg/ml): 3.7 × 10^3
- P.F.U. Count (Herpes simplex II virus; compound 25 μg/ml, arginine 15 μg/ml): 4.2 × 10^3
- P.F.U. Count (Herpes simplex II virus; compound 25 μg/ml, arginine 20 μg/ml): 2.0 × 10^5
- P.F.U. Count (Herpes simplex II virus; compound 25 μg/ml, arginine 25 μg/ml): 2.1 × 10^5
- P.F.U. Count (Herpes simplex II virus; compound 50 μg/ml, arginine 0 μg/ml): 0
- P.F.U. Count (Herpes simplex II virus; compound 50 μg/ml, arginine 2.5 μg/ml): 0
- P.F.U. Count (Herpes simplex II virus; compound 50 μg/ml, arginine 5.0 μg/ml): 0
- P.F.U. Count (Herpes simplex II virus; compound 50 μg/ml, arginine 7.5 μg/ml): 0
- P.F.U. Count (Herpes simplex II virus; compound 50 μg/ml, arginine 10 μg/ml): 79
- P.F.U. Count (Herpes simplex II virus; compound 50 μg/ml, arginine 15 μg/ml): 276
- P.F.U. Count (Herpes simplex II virus; compound 50 μg/ml, arginine 20 μg/ml): 1.6 × 10^4
- P.F.U. Count (Herpes simplex II virus; compound 50 μg/ml, arginine 25 μg/ml): 1.1 × 10^4
- P.F.U. Count (Herpes simplex II virus; compound 100 μg/ml, arginine 0 μg/ml): 0
- P.F.U. Count (Herpes simplex II virus; compound 100 μg/ml, arginine 2.5 μg/ml): 0
- P.F.U. Count (Herpes simplex II virus; compound 100 μg/ml, arginine 5.0 μg/ml): 0
- P.F.U. Count (Herpes simplex II virus; compound 100 μg/ml, arginine 7.5 μg/ml): 0
- P.F.U. Count (Herpes simplex II virus; compound 100 μg/ml, arginine 10 μg/ml): 0
- P.F.U. Count (Herpes simplex II virus; compound 100 μg/ml, arginine 15 μg/ml): 0
- P.F.U. Count (Herpes simplex II virus; compound 100 μg/ml, arginine 20 μg/ml): 1.0 × 10^3
- P.F.U. Count (Herpes simplex II virus; compound 100 μg/ml, arginine 25 μg/ml): 1.6 × 10^3
- P.F.U. Count (Herpes simplex II virus; compound 200 μg/ml, arginine 0 μg/ml): 0
- P.F.U. Count (Herpes simplex II virus; compound 200 μg/ml, arginine 2.5 μg/ml): 0
- P.F.U. Count (Herpes simplex II virus; compound 200 μg/ml, arginine 5.0 μg/ml): 0
- P.F.U. Count (Herpes simplex II virus; compound 200 μg/ml, arginine 7.5 μg/ml): 0
- P.F.U. Count (Herpes simplex II virus; compound 200 μg/ml, arginine 10 μg/ml): 0
- P.F.U. Count (Herpes simplex II virus; compound 200 μg/ml, arginine 15 μg/ml): 0
- P.F.U. Count (Herpes simplex II virus; compound 200 μg/ml, arginine 20 μg/ml): 760
- P.F.U. Count (Herpes simplex II virus; compound 200 μg/ml, arginine 25 μg/ml): 1.7 × 10^3
- P.F.U. Count (Herpes simplex II virus; compound 300 μg/ml, arginine 0 μg/ml): 0
- P.F.U. Count (Herpes simplex II virus; compound 300 μg/ml, arginine 2.5 μg/ml): 0
- P.F.U. Count (Herpes simplex II virus; compound 300 μg/ml, arginine 5.0 μg/ml): 0
- P.F.U. Count (Herpes simplex II virus; compound 300 μg/ml, arginine 7.5 μg/ml): 0
- P.F.U. Count (Herpes simplex II virus; compound 300 μg/ml, arginine 10 μg/ml): 0
- P.F.U. Count (Herpes simplex II virus; compound 300 μg/ml, arginine 15 μg/ml): 0
- P.F.U. Count (Herpes simplex II virus; compound 300 μg/ml, arginine 20 μg/ml): 163
- P.F.U. Count (Herpes simplex II virus; compound 300 μg/ml, arginine 25 μg/ml): 1.0 × 10^3
- P.F.U. Count (Herpes simplex II virus; compound 400 μg/ml, arginine 0 μg/ml): 0
- P.F.U. Count (Herpes simplex II virus; compound 400 μg/ml, arginine 2.5 μg/ml): 0
- P.F.U. Count (Herpes simplex II virus; compound 400 μg/ml, arginine 5.0 μg/ml): 0
- P.F.U. Count (Herpes simplex II virus; compound 400 μg/ml, arginine 7.5 μg/ml): 0
- P.F.U. Count (Herpes simplex II virus; compound 400 μg/ml, arginine 10 μg/ml): 0
- P.F.U. Count (Herpes simplex II virus; compound 400 μg/ml, arginine 15 μg/ml): 179
- P.F.U. Count (Herpes simplex II virus; compound 400 μg/ml, arginine 20 μg/ml): 310
- P.F.U. Count (Herpes simplex II virus; compound 400 μg/ml, arginine 25 μg/ml): 140
- P.F.U. Count (Herpes simplex II virus; compound 500 μg/ml, arginine 0 μg/ml): 0
- P.F.U. Count (Herpes simplex II virus; compound 500 μg/ml, arginine 2.5 μg/ml): 0
- P.F.U. Count (Herpes simplex II virus; compound 500 μg/ml, arginine 5.0 μg/ml): 0
- P.F.U. Count (Herpes simplex II virus; compound 500 μg/ml, arginine 7.5 μg/ml): 0
- P.F.U. Count (Herpes simplex II virus; compound 500 μg/ml, arginine 10 μg/ml): 0
- P.F.U. Count (Herpes simplex II virus; compound 500 μg/ml, arginine 15 μg/ml): 0
- P.F.U. Count (Herpes simplex II virus; compound 500 μg/ml, arginine 20 μg/ml): 0
- P.F.U. Count (Herpes simplex II virus; compound 500 μg/ml, arginine 25 μg/ml): 0

SMILES: NCCCCCC(N)C(=O)O (centres unmarked) [drawing 16]
- P.F.U. Count (HSV, Type II; [1]): <5
- P.F.U. Count (HSV, Type II; [2]): <5
